From patent US12612394B2, “Herbicidal malonamides” (BASF SE, priority 2020, dated 2026)

Legend:
ECHCG = assay: greenhouse experiment, pre-emergence treatment; assay type: in vivo, Echinocloa crus-galli; conditions: application rate 1,000 kg/ha, pre-emergence method
Excerpt: (§1) The culture containers used were plastic flowerpots containing loamy sand with approximately 3.0% of humus as the substrate. The seeds of the test plants were sown separately for each species.
(§2) For the pre-emergence treatment, the active ingredients, which had been suspended or emulsified in water, were applied directly after sowing by means of finely distributing nozzles. The containers were irrigated gently to promote germination and growth and subsequently covered with transparent plastic hoods until the test plants had rooted. This cover caused uniform germination of the test plants, unless this had been impaired by the active ingredients. For the post-emergence treatment, the test plants were first grown to a height of 3 to 15 cm, depending on the plant habit, and only then treated with the active ingredients which had been suspended or emulsified in water. For this purpose, the test plants were either sown directly and grown in the same containers, or they were first grown separately as seedlings and transplanted into the test containers a few days prior to treatment.
(§3) Depending on the species, the test plants were kept at 10-25° C. or 20-35° C., respectively. The test period extended over 2 to 4 weeks. During this time, the test plants were tended, and their response to the individual treatments was evaluated.
(§4) Evaluation was carried out using a scale from 0 to 100. […]

AMARE [1] = assay: greenhouse experiment, pre-emergence treatment; assay type: in vivo, Amaranthus retroflexus; conditions: application rate 1,000 kg/ha, pre-emergence method
Excerpt: as §1, §2, §3, §4

ABUTH = assay: greenhouse experiment, pre-emergence treatment; assay type: in vivo, Abutilon theophrasti; conditions: application rate 0.125 kg/ha, pre-emergence method
Excerpt: as §1, §2, §3, §4

APESV = assay: greenhouse experiment, post-emergence treatment; assay type: in vivo, Apera spica-venti; conditions: application rate 0.500 kg/ha, post-emergence method
Excerpt: as §1, §2, §3, §4

SETFA = assay: greenhouse experiment, pre-emergence treatment; assay type: in vivo, Setaria faberi; conditions: pre-emergence method
Excerpt: as §1, §2, §3, §4

ALOMY = assay: greenhouse experiment, pre-emergence treatment; assay type: in vivo, Alopercurus myosuroides; conditions: application rate 0.125 kg/ha, pre-emergence method
Excerpt: as §1, §2, §3, §4

AMARE [2] = assay: greenhouse experiment, post-emergence treatment; assay type: in vivo, Amaranthus retroflexus; conditions: application rate 0.125 kg/ha, post-emergence method
Excerpt: as §1, §2, §3, §4

SETVI = assay: greenhouse experiment, post-emergence treatment; assay type: in vivo, Setaria viridis; conditions: application rate 0.250 kg/ha, post-emergence method
Excerpt: as §1, §2, §3, §4

Question: How did the “herbicidal activity against ECHCG” value (ECHCG) turn out when `COC(=O)[C@H]1C[C@@H](NC(=O)C(OC)C(=O)Nc2cc(Cl)cc(Cl)c2)CO1` (relative stereo) [I.40, methyl cis-4-[[3-(3,5-dichloroanilino)-2-methoxy-3-oxo-propanoyl]amino]tetrahydrofuran-2-carboxylate] was run?
Answer: very good (a very good herbicidal activity is given at values of 90 to 100)

Question: Which “herbicidal activity against AMARE” value (AMARE [1]) does the source give for `CNC(=O)[C@@H]1C[C@H](NC(=O)C(OC)C(=O)Nc2cc(F)cc(F)c2)CO1` (relative stereo) [I.100] here?
Answer: very good (a very good herbicidal activity is given at values of 90 to 100)

Question: For `COC(C(=O)Nc1cc(Cl)cc(Cl)c1)C(=O)N[C@H]1C=C[C@@H](C(=O)OC2CC2)C1` (relative stereo) [I.185], which “herbicidal activity against ABUTH” value (ABUTH) is on record?
Answer: very good (a very good herbicidal activity is given at values of 90 to 100)

Question: `COC(C(=O)Nc1cc(Cl)cc(Cl)c1)C(=O)NC1CO[C@@H](C(=O)O)C1` (stereo in doubt) [I.60, cis-4-[[3-(3,5-dichloroanilino)-2-methoxy-3-oxo-propanoyl]amino]tetrahydrofuran-2-carboxylate] was tested. Which “herbicidal activity against ECHCG” value (ECHCG) did it give?
Answer: good (A good herbicidal activity is given at values of 70 to 90)

Question: `COC(=O)CC(NC(=O)C(OC)C(=O)Nc1cc(Cl)cc(Cl)c1)C(F)(F)F` (stereo not shown) [I.42] was tested. Which “herbicidal activity against APESV” value (APESV) did it give?
Answer: good (A good herbicidal activity is given at values of 70 to 90)

Question: `COC(C(=O)Nc1cc(Cl)cc(Cl)c1)C(=O)N[C@H]1C=C[C@@H](C(=O)OC(C)C)C1` (stereo partly shown) [I.159] was tested. Which “herbicidal activity against SETFA” value (SETFA; application rate 0.125 kg/ha) did it give?
Answer: very good (a very good herbicidal activity is given at values of 90 to 100)

Question: And the “herbicidal activity against ALOMY” value (ALOMY)?
Answer: very good (a very good herbicidal activity is given at values of 90 to 100)

Question: For `COC(=O)C1C=CC(NC(=O)C(OC(F)F)C(=O)Nc2cc(Cl)cc(Cl)c2)C1` (stereo not shown) [I.173], which “herbicidal activity against SETFA” value (SETFA; application rate 0.250 kg/ha) is on record?
Answer: good (A good herbicidal activity is given at values of 70 to 90)

Question: `COC(=O)[C@@H]1C=C[C@H](NC(=O)C(OC)C(=O)Nc2cccc(OC(F)(F)C(F)F)c2)C1` (stereo partly shown) [I.192] was tested. Which “herbicidal activity against AMARE” value (AMARE [2]) did it give?
Answer: good (A good herbicidal activity is given at values of 70 to 90)

Question: For `COC(=O)[C@@H]1C=C[C@H](NC(=O)C(OC)C(=O)Nc2cc(OC)c(C)c(OC)c2)C1` (stereo partly shown) [I.197], which “herbicidal activity against SETVI” value (SETVI) is on record?
Answer: good (A good herbicidal activity is given at values of 70 to 90)
